Here are results for 2 molecules from patent US20110172304A1, “Sex Attractant of White Peach Scale and Attraction Method” (Shin-Etsu Chemical Co., Ltd., priority 2010, published 2011).

In one test the test system is Thomsonisca amathus. Put plainly: Field sticky-trap attraction test in a tea field, natural-enemy parasitoid wasp. Format: in vivo. Conditions: number attracted to trap relative to Comparative Example 1 (100% Z isomer) = 100, rubber cap with 0.1 mg in total of Z and E isomers, white sticky trap, June 2007. As for the experimental part:
(§1) In accordance with the process described in J. Org. Chem. 1980, 45, 2910-2913, (R,Z)-(+)-3,9-dimethyl-6-isopropenyl-3,9-decadienyl propionate, the sex pheromone of white peach scale, was synthesized. The product thus obtained was separated into the Z isomer and the E isomer by using medium-pressure liquid column chromatography. A gray rubber cap (produced by West in US) impregnated with 0.1 mg in total of the Z isomer and the E isomer at a weight ratio of 100:0, 90:10, 80:20, 70:30, 60:40, 50:50, 40:60, 20:80 or 0:100 was used as an attractant for test.
(§2) In the emerging season of first-generation adult males of white peach scale in June, 2007, the attractant described above was attached to a white sticky trap and placed at intervals of 10 m on ridges in a tea field. The numbers of adult males of white peach scale and Thomsonisca amathus, a parasitoid wasp and natural enemy thereof, which had stuck to the sticky plates, was counted every day, respectively.
(§3) When the number of adult males of white peach scale attracted to the trap in Comparative Example 1 comprising an attractant containing 100% of (R,Z)-(+)-3,9-dimethyl-6-isopropenyl-3,9-decadienyl propionate was assigned as 100, the number attracted to each trap was calculated as a relative value. In the attraction test of Thomsonisca amathus, similar data processing was performed.

For test [1], the system named is adult males of white peach scale. The experiment in a line: Field sticky-trap attraction test in a tea field, adult males of white peach scale. It is filed as in vivo, Pseudaulacaspis pnetagona. To be noted: number attracted to trap relative to Comparative Example 1 (100% Z isomer) = 100, rubber cap with 0.1 mg in total of Z and E isomers, June 2007. As for the experimental part:
as §1, §2, §3

As for `C=C(C)CC[C@H](C/C=C(/C)CCOC(=O)CC)C(=C)C` [Comp.Ex. 1, (R,Z)-(+)-3,9-dimethyl-6-isopropenyl-3,9-decadienyl propionate], the “attraction of Thomsonisca amathus” value with Thomsonisca amathus is 100.0%. Further, in test [1], the “attraction of adult males of white peach scale” value is recorded as 100.0%.

Turning to `C=C(C)CC[C@H](C/C=C(\C)CCOC(=O)CC)C(=C)C` [Comp.Ex. 4, (R,E)-(+)-3,9-dimethyl-6-isopropenyl-3,9-decadienyl propionate], the “attraction of Thomsonisca amathus” value in the test with Thomsonisca amathus is 0.0%. Moreover, in test [1], the “attraction of adult males of white peach scale” value was 0.0%.
